Source: article PMC7614387 (Chemical communications (Cambridge, England), 2021)

Target: T1, LptH (Pseudomonas aeruginosa, UniProt Q9HVV7)
T1 sequence (Q9HVV7 25-175): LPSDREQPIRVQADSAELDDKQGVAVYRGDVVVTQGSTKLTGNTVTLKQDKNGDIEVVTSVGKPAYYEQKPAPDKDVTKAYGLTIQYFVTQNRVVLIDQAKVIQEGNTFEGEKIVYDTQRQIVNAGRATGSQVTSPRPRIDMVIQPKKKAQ
Test: native mass spectrometry
Assay type: biochemical, P. aeruginosa
Conditions: for Emax (in words): comparison within 2a derivatives

Emax (in words) (nMS)	Structure (SMILES)	other results
–	Clc1cc2c(c3ncccc13)OCN(CCc1ccccc1)C2 [1a]	Emax (pH 8, read-out: Emax, maximum achievable monomer mole fraction): 73 ± 2%
–	O=C(O)c1ccc(O)c2ncccc12 [2a, 5-carboxy-8-hydroxyquinoline]	increase in the monomer mole fraction (in words) (100 μM compound, nMS): minimal increase
highest Emax values of the series	COC(=O)CCCNC(=O)c1ccc(O)c2ncccc12 [2c]	–
highest Emax values of the series	COCOc1ccc(C(=O)NCCCC(=O)OC)c2cccnc12 [2e]	–
